Assay results as given in patent US9738612B2, “Methylacryloyl benzimidazolone derivative and anti-tumour use thereof” (SHANGHAI NATURE STANDARD R&D AND BIOTECH CO., LTD, priority 2014, dated 2017).
“Also recorded” adds a separate entry of the source.

Key:
Format in all cases: cell-based
[1] = test system: Akt phosphorylation at S473 site; test: ELISA (double antibody sandwich), Akt phosphorylation in IGF-1 stimulated A549 cells; settings: for Inhibitory rate % (Akt phosphorylation): drug 1 h, then IGF-1 10 min, p-Akt (S473) ELISA; for Effect on Akt phosphorylation compared with positive control: ELISA, in words
Method: Establishment of ELISA screening method using a double antibody sandwich method: A549 cells (a lung cancer cell line, purchased from Chinese Academy of Sciences, Shanghai Institutes for Biological Sciences Cell Resource Center) were inoculated at certain densities in 12-well plates, and incubated at 37° C. in a carbon dioxide incubator overnight to let cells attach the plate wells. Meanwhile the Akt antibody was inoculated at a specific concentration in a highly-adsorbed microplate, and placed in a refrigerator at 4° C. The 12-well plates were washed with sterile PBS three times, then into which serum-free F12 was added, and incubated for 24 hours in a incubator. Then MK2206, Triciribine and FD series drugs were added into 12-well plates and worked for one hour, followed by adding 100 ng of IGF-1 and being stimulated for 10 minutes. The 12-well plates were washed with pre-cooled PBS three times, and 100 μl of RIPA lysis buffer was added into each well to lyse cells on ice for 20 minutes. The lysates were collected and added to the appropriate microplate (purchased from Santa Cruz biotechnology), which were shaken on ice. A p-Akt (S473) antibody (purchased Cell Signaling Technology, Inc.) was added into microplates. After shaking for a period of time, an anti-rabbit antibody (purchased from Cell Signaling Technology, Inc.) was added. The reaction was terminated with 2M sulfuric acid after TMB developed. Absorbance at 450 nm was measured on a microplate reader, and the inhibitory rate=[…], among which ODsample refers to the absorbance of the sample well, ODIGF refers the absorbance of the well with IGF only, OD—IGF refers the absorbance of the well withoutIGF.

A549 = test: Sulforhodamine B proliferation; settings: SRB; for inhibition at 10 µM: Homo sapiens, A549, 72 h, read-out: Inhibitory rate % (A549); for Inhibitory rate % (A549): 10 μM, 72 h
Method: (§1) At a certain density cells were seeded in 96-well plates, and adhered overnight. The medium was discarded after incubating cells with compounds to be tested for 72 h, then 100μL/well trichloroacetic acid (TCA) was added to fix cells at 4° C. for 2h. After that the fixing solution was discarded. Cells were gently washed 5 times with distilled water, dried at room temperature. Cells were stained with 4 mg/mL SRB staining solution (100 μL/well) at room temperature for 15min. The staining solution was discarded, and cells were washed five times with 1% acetic acid (HAC) and dried at room temperature. To the plate tris base buffer (10 mM) was added at 150 μL/well and placed at room temperature for 15min. The OD values were measured at 540 nm wavelength in a microplate reader. Inhibitory rate (%)=(OD valuecontrol wells−OD valuedrugs treated wells)/OD valuecontrol wells×100%.
(§2) The results were shown in Table 2, the working concentrations of MK2206 and compounds of FD series were 10 μM. As shown in this Table, PC-3 is a prostate cancer cell line purchased from Cell Resource Center of Shanghai Institutes for Biological Sciences, Chinese Academy of Sciences, A549 is a lung cancer cell line purchased from Cell Resource Center of Shanghai Institutes for Biological Sciences, Chinese Academy of Sciences, and SGC-7901 is a gastric cancer cell line purchased from Cell Resource Center of Shanghai Institutes for Biological Sciences, Chinese Academy of Sciences.

PC-3 = test: Sulforhodamine B proliferation; settings: SRB; for inhibition at 10 µM: Homo sapiens, PC-3, 72 h, read-out: Inhibitory rate % (PC-3); for inhibition at 10 µM / Inhibitory rate % (PC-3): 72 h
Method: as §1, §2

SGC-7901 = test: Sulforhodamine B proliferation; settings: SRB; for inhibition at 10 µM: Homo sapiens, SGC-7901, 72 h, read-out: Inhibitory rate % (SGC-7901); for Inhibitory rate % (SGC-7901): 10 μM, 72 h
Method: as §1, §2

p-Akt (S473) = test: Western blot, p-Akt (S473) in IGF stimulated A549 cells; settings: compound 1 h, IGF 10 min, FIG. 1, in words
Method: A549 cells were seeded at a density of 2×10^5 cells/well into 12-well plates, and adhered overnight. Then the medium was discarded and the plates were washed three times with normal saline. After that, fresh serum-free medium was added to starve cells for 24 hours, compounds to be tested were added to work for 1 h, then IGF-I was added to stimulated for 10 min, followed byadding a lysis buffer on ice to lyse for half an hour. The cell lysates were collected and centrifuged at 20000×g at 4° C. for 10min, then the supernatant was collected. Protein was quantified by MicroBCA protein quantification Assay kit, and the protein concentration was normalized. The supernatant was mixed with the 4×SDS sample buffer [200 mM Tris.Cl (pH 6.8), 400 mM DTT, 8% SDS, 0.4% bromophenol blue, 40% glycerol] and boiled for 15 min. After cooling at room temperature, aliquots were loaded on polyacrylamide gel, and electrophoresed in Tris-glycine electrophoretic buffer (25 mM Tris, 250 mM glycine, 0.1% SDS) at 80-120 V for about 2 h. Proteins were transferred from the gel to a nitrocellulose membrane by a semi-dry method. Transferring conditions: transfer buffer (39 mM glycine, 48 mM Tris base, 0.037% SDS, 20% methanol); transfer current 25 mA; transfer time 2 h. After transfer, Ponceau S staining was used to determine the transfer efficiency and the positions of protein bands on the nitrocellulose membranes. After labeling the membrane was blocked with a blocking solution containing 5% nonfat-dried milk [5% nonfat-dried milk, 20 mM Tris-HCl (pH 7.2-7.4), 150 mM NaCl, 0.1% (v/v) Tween 20] on a shaker at room temperature for 2 h. To the system were added specific primary antibodies and incubated overnight at 4° C. Then the membrane was washed with PBST solution [20 mM Tris-HCl (pH 7.2-7.4), 150 mM NaCl, 0.1% (v/v) Tween 20] at room temperature three times, 15 min/time. To the system were added Horseradish peroxidase-labeled secondary antibodies and incubated at room temperature on a shaker with gentle shaking for 2 h. After washing with PBST solution three times, the system was exposed, developed and fixed after SuperSignal West Dura Chemiluminescent Substrate (Pierce Inc, Rochford, IL) was used for color. The results were shown in FIG. 1, in which there were 12 lanes the band shade and size of which indicated the corresponding protein concentration levels. […] MK2206 was an Akt phosphorylation inhibitor developed by Merck, and was currently in phase II clinical trial, showing good therapeutic effects in a variety of tumors.

## C=C(C)n1c(=O)n(C(=O)CCCCCCC)c2cc([N+](=O)[O-])ccc21 [FD16]
[1]
  Inhibitory rate % (Akt phosphorylation): 64%
A549
  inhibition at 10 µM: 23.2%
PC-3
  inhibition at 10 µM: 7.1%
SGC-7901
  inhibition at 10 µM: 12.4%

## C=C(C)n1c(=O)n(C(=O)c2ccccc2C)c2ccc([N+](=O)[O-])cc21 [FD17]
[1]
  Inhibitory rate % (Akt phosphorylation): 38%
A549
  inhibition at 10 µM: 31.4%
PC-3
  inhibition at 10 µM: 20%
SGC-7901
  inhibition at 10 µM: 40.5%

## C=C(C)n1c(=O)n(C(C)=O)c2ccc([N+](=O)[O-])cc21 [FD2]
[1]
  Effect on Akt phosphorylation compared with positive control: comparable effects with that of Triciribine
  Inhibitory rate % (Akt phosphorylation): 51%
A549
  Inhibitory rate % (A549): 3.4%
PC-3; 10 μM
  Inhibitory rate % (PC-3): 32.4%
SGC-7901
  Inhibitory rate % (SGC-7901): 23.4%

## NC1(c2ccc(-c3nc4ccn5c(=O)[nH]nc5c4cc3-c3ccccc3)cc2)CCC1 [MK2206, reference compound]
[1]
  Inhibitory rate % (Akt phosphorylation): 92%
p-Akt (S473)
  Effect on Akt phosphorylation level (p-Akt S473 band): significantly reduce the Akt phosphorylation level; also recorded: significantly inhibited the increase of Akt phosphorylation level stimulated by IGF
A549
  Inhibitory rate % (A549): 61.0%
PC-3; 10 μM
  Inhibitory rate % (PC-3): 1.2%
SGC-7901
  Inhibitory rate % (SGC-7901): 24.3%

## C=CC(=O)n1c(=O)n(C(=C)C)c2ccc([N+](=O)[O-])cc21 [FD6]
[1]
  Inhibitory rate % (Akt phosphorylation): 10%
A549
  inhibition at 10 µM: 18.2%
PC-3
  inhibition at 10 µM: 24.2%
SGC-7901
  inhibition at 10 µM: 30.4%

## C=C(C)n1c(=O)n(C(=O)CCC)c2ccc([N+](=O)[O-])cc21 [FD9]
[1]
  Inhibitory rate % (Akt phosphorylation): 22%
A549
  Inhibitory rate % (A549): 1.1%
PC-3
  inhibition at 10 µM: 26.1%
SGC-7901
  inhibition at 10 µM: 26.4%

## C=C(C)n1c(=O)n(C(=O)CCC)c2ccc([N+](=O)[O-])cc21 [FD11]
[1]
  Inhibitory rate % (Akt phosphorylation): 11%
A549
  Inhibitory rate % (A549): 2.4%
PC-3; 10 μM
  Inhibitory rate % (PC-3): 19.2%
SGC-7901
  Inhibitory rate % (SGC-7901): 13.6%

## C=C(C)n1c(=O)n(C(=O)CCCCC)c2cc([N+](=O)[O-])ccc21 [FD14]
[1]
  Inhibitory rate % (Akt phosphorylation): 34%
A549
  inhibition at 10 µM: 13.1%
PC-3
  inhibition at 10 µM: 9%
SGC-7901
  inhibition at 10 µM: 25.5%

## C=C(C)n1c(=O)n(C(=O)CCCCC)c2ccc([N+](=O)[O-])cc21 [FD13]
[1]
  Effect on Akt phosphorylation compared with positive control: comparable effects with that of Triciribine
  Inhibitory rate % (Akt phosphorylation): 56%

## C=C(C)n1c(=O)n(C(=O)CCCCCCC)c2ccc([N+](=O)[O-])cc21 [FD15]
[1]
  Inhibitory rate % (Akt phosphorylation): 42%
A549
  inhibition at 10 µM: 33.3%
PC-3
  inhibition at 10 µM: 4.6%
SGC-7901
  inhibition at 10 µM: 20.1%

## C=C(C)n1c(=O)n(C(=O)CC)c2cc([N+](=O)[O-])ccc21 [FD4]
[1]
  Effect on Akt phosphorylation compared with positive control: comparable effects with that of Triciribine
  Inhibitory rate % (Akt phosphorylation): 50%
A549
  inhibition at 10 µM: 7.2%
PC-3
  inhibition at 10 µM: 33.9%
SGC-7901
  inhibition at 10 µM: 22%

## C=C(C)n1c(=O)n(C(=O)c2ccccc2C)c2cc([N+](=O)[O-])ccc21 [FD18]
[1]
  Inhibitory rate % (Akt phosphorylation): 42%
A549
  inhibition at 10 µM: 11.5%
PC-3
  inhibition at 10 µM: 32.1%
SGC-7901
  inhibition at 10 µM: 44.2%

## C=C(C)n1c(=O)n(C(=O)CCC)c2cc([N+](=O)[O-])ccc21 [FD10]
[1]
  Inhibitory rate % (Akt phosphorylation): 17%
A549
  inhibition at 10 µM: 5.3%
PC-3
  inhibition at 10 µM: 13.8%
SGC-7901
  inhibition at 10 µM: 28.1%

## C=C(C)n1c(=O)n(C(C)=O)c2ccc([N+](=O)[O-])cc21 [FD1]
[1]
  Inhibitory rate % (Akt phosphorylation): 85%
p-Akt (S473)
  Effect on Akt phosphorylation level (p-Akt S473 band): significantly reduce the Akt phosphorylation level; also recorded: comparable effects to MK2206
A549
  Inhibitory rate % (A549): 9.6%
PC-3; 10 μM, in words
  Inhibiting effect on PC-3 tumor cells (PTEN deficient) proliferation relative to other lines: more significant
PC-3
  inhibition at 10 µM: 51.1%
SGC-7901
  Inhibitory rate % (SGC-7901): 56.4%

## C=C(C)C(=O)n1c(=O)n(C(=C)C)c2ccc([N+](=O)[O-])cc21 [FD8]
[1]
  Inhibitory rate % (Akt phosphorylation): 3%
A549
  inhibition at 10 µM: 2.8%
PC-3
  inhibition at 10 µM: 13.4%
SGC-7901
  inhibition at 10 µM: 28%

## C=CC(=O)n1c(=O)n(C(=C)C)c2cc([N+](=O)[O-])ccc21 [FD5]
[1]
  Inhibitory rate % (Akt phosphorylation): 20%
A549
  inhibition at 10 µM: 22.3%
PC-3
  inhibition at 10 µM: 29.1%
SGC-7901
  inhibition at 10 µM: 7.3%

## C=C(C)C(=O)n1c(=O)n(C(=C)C)c2cc([N+](=O)[O-])ccc21 [FD7]
[1]
  Inhibitory rate % (Akt phosphorylation): 6%
A549
  inhibition at 10 µM: 34.1%
PC-3
  inhibition at 10 µM: 22.6%
SGC-7901
  inhibition at 10 µM: 34.1%

## C=C(C)n1c(=O)n(C(=O)CCC)c2cc([N+](=O)[O-])ccc21 [FD12]
[1]
  Effect on Akt phosphorylation compared with positive control: comparable effects with that of Triciribine
  Inhibitory rate % (Akt phosphorylation): 48%
A549
  Inhibitory rate % (A549): 3.8%
PC-3; 10 μM
  Inhibitory rate % (PC-3): 8.2%
SGC-7901
  Inhibitory rate % (SGC-7901): 19.8%
